This note sets out measurements from PubChem BioAssay (NCI).

Common to all, as to experiment: NCI-60 cell line screen, 48 h
In assay [1] the test system is K-562 leukemia.
In assay [2] the test system is A498 renal.
For assay [3], the system named is NCI-H226 lung.
The subject of assay [4] is SK-MEL-2 melanoma.
The subject of assay [5] is OVCAR-5 ovarian.
In assay [6] the test system is HCC-2998 colon.
Assay [7] concerns NCI-H522 lung.
Assay [8] concerns KM12 colon.

Each structure is given as a SMILES string. “And” between values parts separate entries of the source, which are not always exact repeats. Equal entries are not always repeated.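 Method: 48-hour compound exposure of cells in 96-well plates, five concentrations, linear interpolation of endpoints. GI50 = concentration required for 50% inhibition of growth. TGI: total growth inhibition.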

Consider `O=C(C(=O)c1ccc(Cc2ccc(C(=O)C(=O)c3ccccc3)cc2)cc1)c1ccccc1`, for which the TGI in assay [1], in assay [2], in assay [3], in assay [4], in assay [5] and in assay [6] was > 100 µM throughout. Moreover, the TGI in assay [7] and in assay [8] was > 100 µM each time.
Consider `CSc1nc2c(c(O)c(C)c(=O)n2C2OC(COC(C)=O)C(OC(C)=O)C(OC(C)=O)C2OC(C)=O)c(=O)n1C` (configuration not stated), for which the TGI in assay [1], in assay [2], in assay [3], in assay [4], in assay [5] and in assay [6] was > 100 µM each time. Further, the TGI in assay [7] and in assay [8] was > 100 µM each time.
In the case of `C/C(=N/N(C=O)C[n+]1ccccc1)C(CN(CC(C)C)CC(C)C)C(=O)Nc1ccc(C)cc1C` (configuration not stated), the TGI in assay [1], in assay [2], in assay [4], in assay [5], in assay [6] and in assay [7] was > 100 µM throughout. In addition, in assay [8], the TGI is > 100 µM.
Turning to `O=c1nc(-c2ccccc2)c2c3c(cccn13)CCC2`, the TGI in assay [1], in assay [2], in assay [3], in assay [4], in assay [5] and in assay [6] was > 100 µM throughout. Also, the TGI in assay [7] and in assay [8] was > 100 µM throughout.
As to `O=C(c1ccccc1)c1c(CC(O)c2cccnc2)n(C(=O)c2ccccc2)c2ccccc12` (configuration not stated), the TGI in assay [1] was 75.7 µM; in assay [3], 24.6 µM; in assay [4], 35.8 µM; in assay [5] it was 37.6 µM; in assay [6], 35 µM; in assay [7] it was 30.1 µM. Besides, the TGI in assay [8] was 36.3 µM.
Regarding `O=C(CCc1nc(=S)[nH][nH]1)NC12CC3CC(CC(C3)C1)C2`, the TGI in assay [1], in assay [2], in assay [3], in assay [4], in assay [5] and in assay [6] was > 100 µM each time. The TGI in assay [7] and in assay [8] was > 100 µM each time.
On to `O=C1c2ccccc2N2OC3(N4CCCC4)CCCC3C12c1ccccc1` (configuration not stated), for which the TGI in assay [1], in assay [2], in assay [3], in assay [6] and in assay [7] was > 100 µM each time.
For `Cc1cc([N+](=O)[O-])c(C)c2c1[nH]c1ccc(/C(CCC3CCCC3)=N\N)cc12`, the TGI is 55.2 µM in assay [1]; 41.5 µM in assay [3]; 30.2 µM in assay [4]; 30.9 µM in assay [6]; 35 µM in assay [7]; 34.9 µM in assay [8].
As to `COc1cc(C2c3cc4c(cc3[C@@H](Nc3ccc(N(C)C)cc3)[C@H]3COC(=O)C23)OCO4)cc(OC)c1O` (some centres not stated), the GI50 was 2.41 µM in assay [1]; 0.643 µM in assay [2]; 0.3 µM in assay [3]; 3.58 µM in assay [4]; 1.96 µM in assay [5]; 2.36 µM in assay [6]. The GI50 in assay [7] is 1.18 µM; in assay [8], 3.34 µM. In addition, the TGI in assay [1] is 75 µM and 36.8 µM; in assay [2], 3.42 µM and 10.2 µM; in assay [4], 9.12 µM and 12 µM; in assay [5], 6.21 µM and 16.2 µM; in assay [6] it was 3.89 µM and 8.71 µM; in assay [7], 2.29 µM and 2.56 µM. Further, the TGI in assay [8] is 4.49 µM and 14.3 µM.
As to `COc1ccc(C(C2=C(C)C(=O)c3ccccc3C2=O)c2ccc(C(C)C)cc(=O)c2O)cc1` (configuration not stated), the TGI in assay [1] was > 100 µM; in assay [3], 4.94 µM; in assay [4], 22.3 µM; in assay [5], 7.53 µM; in assay [7] it was 48.6 µM; in assay [8], > 100 µM.
`N=C(N)SCc1cn2ccccc2n1`: the TGI in assay [1], in assay [3], in assay [4], in assay [5], in assay [6] and in assay [7] was > 100 µM throughout. In addition, the TGI in assay [8] is > 100 µM.
Regarding `CC(C)N(C(=O)C12C3C4C1C1C2C3C41C(O)C(C)(C)C)C(C)C` (configuration not stated), the TGI in assay [1], in assay [2], in assay [6] and in assay [7] was > 50 µM each time.
With `CC1(C)C(=O)C(O)=CC2C1=CCC1C2(C)C(=O)CC2(C)C(C(C)(O)C(=O)CC(O)C(C)(C)O)C(O)CC12C` (configuration not stated), the TGI in assay [1] was > 80.2 µM; in assay [2], 4.37 µM; in assay [3] it was 7.31 µM; in assay [4], 6.12 µM; in assay [5], > 100 µM; in assay [6] it was 14 µM. The TGI in assay [7] is 8.61 µM; in assay [8], > 100 µM.
As for `Cc1nc2c(n1CC(C)(C)C)C(=O)c1ccccc1C2=O`, the TGI in assay [1], in assay [3], in assay [4], in assay [6], in assay [7] and in assay [8] was > 100 µM each time.
As to `CC(C)c1cccc(C(C)C)c1NC(=O)C(=O)C(C(=O)c1ccccc1-c1ccccc1)C1OC(=O)c2ccccc21` (configuration not stated), the TGI in assay [1] turned out to be 68.3 µM; in assay [4], 32.1 µM; in assay [5] it was 35.4 µM; in assay [6], 32.5 µM; in assay [7], 30.5 µM; in assay [8], 32.9 µM.
Regarding `CCc1ccccc1NC(=O)C(=O)C(C(=O)c1ccc(OC)cc1)c1ccc(OC)cc1` (configuration not stated), the TGI in assay [1], in assay [2], in assay [3], in assay [4], in assay [5] and in assay [6] was > 100 µM each time. In addition, the TGI in assay [7] and in assay [8] was > 100 µM each time.
